Experimental findings from PMC7691559 (Journal of Pesticide Science, 2020) are described below.

Common to all, as to test: spectrophotometric GST assay, nonlinear regression
What all share (type): biochemical
What all share (settings): read-out: CDNB / Km; 5 mM GSH, CDNB varied

Test [1] deals with T1, bmGSTu2 (Bombyx mori, UniProt A9XI30, S166A).
T1 sequence (A9XI30 1-233 S166A): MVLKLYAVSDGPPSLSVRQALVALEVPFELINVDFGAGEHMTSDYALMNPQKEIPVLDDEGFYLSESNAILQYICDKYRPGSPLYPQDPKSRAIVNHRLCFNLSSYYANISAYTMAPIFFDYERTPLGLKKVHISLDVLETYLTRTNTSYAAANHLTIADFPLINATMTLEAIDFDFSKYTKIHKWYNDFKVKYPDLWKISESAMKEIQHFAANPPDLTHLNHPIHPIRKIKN

Test [2] concerns the target T2, bmGSTu2 (Bombyx mori, UniProt A9XI30).
T2 sequence (A9XI30 1-233): T1 sequence (A9XI30 1-233 S166A) with A166S

The target of test [3] is T3, bmGSTu2 (Bombyx mori, UniProt A9XI30, N102A).
T3 sequence (A9XI30 1-233 N102A): T1 sequence (A9XI30 1-233 S166A) with N102A, A166S

In test [4] the target is T4, bmGSTu2 (Bombyx mori, UniProt A9XI30, P162A).
T4 sequence (A9XI30 1-233 P162A): T1 sequence (A9XI30 1-233 S166A) with P162A, A166S

Where a chain is given by its changes, count along the chain named.

`O=[N+]([O-])c1ccc(Cl)c([N+](=O)[O-])c1` [CDNB, 1-chloro-2,4-dinitrobenzene]: the Km on bmGSTu2 [1] is 720 µM; at bmGSTu2 [2], 280 µM; at bmGSTu2 [3], 940 µM; on bmGSTu2 [4], 2100 µM.
